In publication PMC7269146, “Jingzhaotoxin-X, a gating modifier of Kv4.2 and Kv4.3 potassium channels purified from the venom of the Chinese tarantula Chilobrachys jingzhao” (The Journal of Venomous Animals and Toxins Including …, 2020):
Where a SMILES comes first, the peptide text is derived from it. Bridges are numbered along the chain shown (N, C = ends).

System: Kv1.1
Assay: microelectrode voltage-clamp, Xenopus laevis oocytes, Kv1.1
Type: cell-based
Conditions: 10 μM, 300-ms depolarization to +20 mV from -90 mV, pH 7.5, 19-23°C, n = 3
Method: Briefly, plasmids were linearized, and transcription was carried out according to the standardized protocol. Afterwards, the capped cRNAs that encoded the related ion channels were prepared. To conduct transcription in vitro, firstly, NotL was utilized to linearize plasmids pCI that contained both Kv1.1 (Accession: NM_010595.3) and Kv2.1 (Accession: AF026005.1), whereas SphI was adopted to linearize plasmid PcDNA3 containing Kv1.2 (Accession: NM_012970.3) gene. […] Thereafter, the linearized plasmids were used as the templates to synthesize cRNAs in vitro using the large-scale T7 mMESSAGE mMACHINE transcription kit (Ambion, USA).
A mature female X. laevis was placed on the ice for anesthesia, and then the Xenopus laevis oocytes at stage IV-VI were extracted. Subsequently, those extracted oocytes were treated by collagenase (1 mg/mL) contained within the calcium-depleted ND96 solution (containing 96 mM NaCl, 10 mM HEPES, 1 mM MgCl2, and 2 mM KCl) for defolliculation. […]
Firstly, the effects of JZTX-X on the isoforms of potassium channels (including Kv1.1-1.3, Kv2.1, as well as Kv4.2-4.3) contained within the X. laevis oocytes were investigated through the microelectrode voltage-clamp approach. […] We also determined the effects of JZTX-X on Ito potassium channels in rat DRG neurons; those current amplitudes were inhibited by 54.4±6.8% when 500 nM JZTX-X was applied (Fig. 3K, n = 5).

In the case of `CC(C)C[C@@H]1NC(=O)[C@H](CCCCN)NC(=O)[C@H](Cc2ccc(O)cc2)NC(=O)[C@@H]2CSSC[C@@H]3NC(=O)[C@H](Cc4ccc(O)cc4)NC(=O)[C@H](Cc4ccccc4)NC(=O)CNC(=O)[C@H](C)NC(=O)[C@H](CSSC[C@H](NC(=O)[C@@H](N)CC(C)C)C(=O)N[C@@H](CO)C(=O)N[C@@H](CCCNC(=N)N)C(=O)N[C@@H](CCC(=O)O)C(=O)NCC(=O)N[C@@H](CCC(=O)O)C(=O)N[C@@H](Cc4ccccc4)C(=O)N2)NC(=O)[C@H](CSSC[C@@H](C(=O)N[C@@H](Cc2ccc(O)cc2)C(=O)N[C@@H](CCCNC(=N)N)C(=O)N[C@@H](CC(N)=O)C(=O)O)NC(=O)[C@H](Cc2c[nH]cn2)NC(=O)[C@H](CC(C)C)NC(=O)[C@H](C(C)C)NC(=O)[C@H](Cc2ccccc2)NC(=O)[C@H](C)NC(=O)[C@H](CCCCN)NC3=O)NC(=O)[C@H](CCCCN)NC(=O)[C@H](CCCNC(=N)N)NC1=O` [JZTX-X, Jingzhaotoxin-X] (H-LCSREGEFCYKLRKCCAGFYCKAFVLHCYRN-OH; disulfide 2-16, 9-21, 15-28; N-terminus assumed), the “inhibition of Kv1.1 current” value was “less than 5%”.
